ChEMBL document CHEMBL5356934, “Antibacterial activities of anthraquinones: structure-activity relationships and action mechanisms” (RSC Med Chem, 2023)
≈ marks a conversion by molar mass, not a printed value.

Assays:
Enterococcus faecium [1] = assay: Antibacterial activity against vancomycin-resistant Enterococcus faecium; type: functional
Enterococcus faecium [2] = assay: Antibacterial activity against vancomycin susceptible Enterococcus faecium119-39A assessed as inhibition of bacterial growth by broth microdilution method; type: functional; settings: 119-39A
Staphylococcus aureus [3] = assay: Antibacterial activity against methicillin-resistant Staphylococcus aureus J-108; type: functional
Staphylococcus aureus [4] = assay: Antibacterial activity against methicillin-susceptible Staphylococcus aureus assessed as reduction in bacterial growth; type: functional
Pseudomonas aeruginosa [5] = assay: Antibacterial activity against wild type Pseudomonas aeruginosa ATCC 27853 after 24 hrs by microbroth dilution method; type: functional
Staphylococcus aureus [6] = assay: Antibacterial activity against Staphylococcus aureus ATCC 25923 assessed as reduction in microbial growth after 24 hrs by spectrophotometric method; type: functional
Salmonella typhimurium [7] = assay: Antibacterial activity against Salmonella typhimurium ATCC 1255 assessed as reduction in bacterial growth; type: functional, Salmonella enterica subsp. enterica serovar Typhimurium; settings: Salmonella enterica
Staphylococcus aureus [8] = assay: Antibacterial activity against Staphylococcus aureus NCTC 11994 assessed as reduction in bacterial growth; type: functional
Staphylococcus aureus [9] = assay: Antibacterial activity against Staphylococcus aureus assessed as diameter of inhibition zone; type: functional
Bacillus cereus [10] = assay: Antibacterial activity against Bacillus cereus; type: functional
Staphylococcus aureus [11] = assay: Antibacterial activity against methicillin-resistant Staphylococcus aureus ATCC 43300 assessed as reduction in bacterial growth by CLSI protocol based broth microdilution method; type: functional
Staphylococcus aureus [12] = assay: Antibacterial activity against methicillin-resistant Staphylococcus aureus CGMCC1.12483 assessed as reduction in bacterial growth by CLSI protocol based broth microdilution method; type: functional
Vibrio rotiferianus = assay: Antibacterial activity against Vibrio rotiferianus MCCC E385 assessed as cell growth inhibition measured after 24 hrs by resazurin dye based assay; type: functional
Vibrio campbellii = assay: Antibacterial activity against Vibrio campbellii MCCC E333 assessed as cell growth inhibition measured after 24 hrs by resazurin dye based assay; type: functional
Salmonella = assay: Antibacterial activity against Salmonella ATCC 12022 assessed as inhibition of bacterial growth by standard broth microdilution method; type: functional
Escherichia coli [13] = assay: Antibacterial activity against Escherichia coli ATCC 8730 assessed as reduction in bacterial growth; type: functional
Porphyromonas gingivalis = assay: Antibacterial activity against Porphyromonas gingivalis ATCC 33277 assessed as reduction in bacterial growth incubated for 24 hrs by micro-dilution method; type: functional
Streptococcus mutans = assay: Antibacterial activity against Streptococcus mutans ATCC 25175 assessed as inhibition of bacterial growth incubated for 18 to 20 hrs by CLSI protocol based broth microdilution method; type: functional; settings: time 18-20 hrs
Staphylococcus aureus [14] = assay: Antibacterial activity against Staphylococcus aureus ATCC 25923 assessed as reduction in microbial growth incubated for 24 hrs by broth micro-dilution method; type: functional
Proteus vulgaris = assay: Antimicrobial activity against Proteus vulgaris assessed as inhibition of bacterial growth; type: functional
Bacillus cereus [15] = assay: Antibacterial activity against Bacillus cereus assessed as reduction in microbial growth after 18 hrs by MTT based broth dilution method; type: functional
Staphylococcus aureus [16] = assay: Antibacterial activity against Staphylococcus aureus assessed as reduction in microbial growth; type: functional
[17] = test system: Staphylococcus epidermidis; assay: Antibacterial activity against Staphylococcus epidermidis assessed as reduction in microbial growth; type: functional
[18] = test system: Mycobacterium tuberculosis; assay: Antimycobacterial activity against Mycobacterium tuberculosis H37Ra assessed as reduction in microbial growth; type: functional
Escherichia coli [19] = assay: Antibacterial activity against Escherichia coli assessed as reduction in bacterial growth incubated for 12 hrs by microdilution method; type: functional
Escherichia coli [20] = assay: Antimicrobial activity against Escherichia coli assessed as reduction in microbial growth; type: functional
Aeromonas hydrophila [21] = assay: Antibacterial activity against Aeromonas hydrophila IB101; type: functional
Aeromonas hydrophila [22] = assay: Antibacterial activity against Aeromonas hydrophila; type: functional
Rothia kristinae = assay: Antibacterial activity against Rothia kristinae assessed as reduction in microbial growth; type: functional
Klebsiella aerogenes = assay: Antimicrobial activity against Enterobacter aerogenes ATCC 45102; type: functional
Pseudomonas aeruginosa [23] = assay: Antibacterial activity against Pseudomonas aeruginosa assessed as reduction in bacterial growth incubated for 24 hrs by broth microdilution method; type: functional
Staphylococcus aureus [24] = assay: Antibacterial activity against Staphylococcus aureus 4125 assessed as reduction in bacterial growth; type: functional
Cryptococcus neoformans = assay: Antifungal activity against Cryptococcus neoformans assessed as reduction in microbial growth; type: functional
Candida albicans = assay: Antifungal activity against Candida albicans assessed as fungal growth inhibition by broth microdilution method; type: functional
Vibrio harveyi = assay: Antimicrobial activity against Vibrio harveyi assessed as bacterial growth inhibition; type: functional
Neisseria gonorrhoeae = assay: Antibacterial activity against resistant Neisseria gonorrhoeae assessed inhibition of bacterial growth; type: functional
Trichophyton rubrum = assay: Antifungal activity against Trichophyton rubrum assessed as fungal growth inhibition; type: functional
Epidermophyton floccosum = assay: Antifungal activity against Epidermophyton floccosum measured after 96 hrs by two fold serial dilution technique; type: functional
Pseudomonas aeruginosa [25] = assay: Antibacterial activity against Pseudomonas aeruginosa assessed as zone of inhibition; type: functional
Escherichia coli [26] = assay: Antibacterial activity against Escherichia coli assessed as zone of inhibition; type: functional
Bacillus sp. = assay: Antibacterial activity against Bacillus sp. assessed as inhibition of bacterial growth; type: functional; settings: Bacillus sp. (in: firmicutes)
Staphylococcus aureus [27] = assay: Antibiofilm activity against Staphylococcus aureus CMCC 26003 assessed as reduction in live bacteria in biofilm formation incubated for 24 hrs by crystal violet staining based analysis; type: functional
Staphylococcus aureus [28] = assay: Antibacterial activity against Staphylococcus aureus ATCC 25923 assessed as reduction in bacterial growth incubated for 24 hrs by serial dilution method; type: functional
Staphylococcus aureus [29] = assay: Antibacterial activity against methicillin resistant Staphylococcus aureus ATCC 33592 incubated for 24 hrs by Mueller-Hinton broth based assay; type: functional
Bacillus subtilis = assay: Antibacterial activity against Bacillus subtilis ATCC 6051 assessed as reduction in bacterial growth incubated for 24 hrs by broth micro-dilution method; type: functional
[30] = test system: Mycobacterium tuberculosis; assay: Anti-mycobacterial activity against Mycobacterium tuberculosis H37Ra assessed as reduction in bacterial growth […]; type: functional
Bacillus cereus [31] = assay: Antibacterial activity against Bacillus cereus TISTR 687 incubated for 16 to 18 hrs by Mueller-Hinton broth based two-fold serial dilution method; type: functional; settings: time 16-18 hrs
Streptococcus suis = assay: Antibacterial activity against Streptococcus suis ATCC 700794 assessed as bacterial growth inhibition incubated for 24 hrs by broth micro-dilution method; type: functional
Escherichia coli [32] = assay: Antibacterial activity against Escherichia coli ATCC 25922 assessed as bacterial growth inhibition measured after 48 hrs by resazurin assay; type: functional
Pseudomonas aeruginosa [33] = assay: Antibacterial activity against Pseudomonas aeruginosa assessed as reduction in bacterial growth by broth microdilution method; type: functional
Pseudomonas aeruginosa [34] = assay: Antibacterial activity against Pseudomonas aeruginosa TISTR 781 assessed as reduction in bacterial growth by broth microdilution method; type: functional
Pseudomonas aeruginosa [35] = assay: Antibacterial activity against Pseudomonas aeruginosa TISTR 781 assessed as inhibition of bacterial growth incubated for 16 to 18 hrs by Mueller-Hinton broth based two-fold serial dilution method; type: functional; settings: time 16-18 hrs
Salmonella typhimurium [36] = assay: Antibacterial activity against Salmonella typhimurium TISTR 780 assessed as inhibition of bacterial growth incubated for 16 to 18 hrs by Mueller-Hinton broth based two-fold serial dilution method; type: functional, Salmonella enterica subsp. enterica serovar Typhimurium; settings: Salmonella enterica, time 16-18 hrs
Haemophilus parasuis = assay: Antibacterial activity against Haemophilus parasuis clinical isolates assessed as bacterial growth inhibition measured after 16 to 24 hrs by broth microdilution assay; type: functional; settings: Glaesserella parasuis; time 16-24 hrs
Acetylcholinesterase = Acetylcholinesterase (Homo sapiens, UniProt P22303); assay: Inhibition of Acetylcholinesterase (unknown origin)
Chain of Acetylcholinesterase (P22303 whole entry): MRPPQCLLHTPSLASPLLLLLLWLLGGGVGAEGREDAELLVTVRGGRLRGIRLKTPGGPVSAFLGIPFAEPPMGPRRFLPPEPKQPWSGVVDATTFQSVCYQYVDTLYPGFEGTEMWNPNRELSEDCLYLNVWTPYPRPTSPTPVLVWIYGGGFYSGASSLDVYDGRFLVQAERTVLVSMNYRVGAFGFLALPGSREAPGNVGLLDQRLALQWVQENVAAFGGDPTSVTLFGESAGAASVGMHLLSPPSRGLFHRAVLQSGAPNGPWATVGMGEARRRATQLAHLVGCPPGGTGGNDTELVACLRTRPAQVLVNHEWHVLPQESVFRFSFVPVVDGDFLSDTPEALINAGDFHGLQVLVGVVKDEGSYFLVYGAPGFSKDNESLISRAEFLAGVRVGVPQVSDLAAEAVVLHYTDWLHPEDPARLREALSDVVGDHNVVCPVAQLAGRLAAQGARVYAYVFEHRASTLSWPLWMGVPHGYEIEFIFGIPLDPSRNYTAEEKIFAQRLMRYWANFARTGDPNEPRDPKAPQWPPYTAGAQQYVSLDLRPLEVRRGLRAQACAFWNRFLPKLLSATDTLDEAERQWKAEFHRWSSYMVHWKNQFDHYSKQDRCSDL

## COc1cc2oc3cc(O)c(OC)c(CC=C(C)C)c3c(=O)c2c(O)c1CC=C(C)C
Enterococcus faecium [1]
  MIC: 6.25 µg/mL (≈ 14.7 µM)
Enterococcus faecium [2]
  MIC: 6.25 µg/mL (≈ 14.7 µM)
Staphylococcus aureus [3]
  MIC: 3.13 µg/mL (≈ 7.37 µM)
Staphylococcus aureus [4]
  MIC: 6.25 µg/mL (≈ 14.7 µM)

## CCCOc1ccc(N2CCCCC2)c2c(=O)c3ccccc3sc12
Pseudomonas aeruginosa [5]
  MIC: 32 µg/mL (≈ 90.5 µM)

## COc1cc(C=O)c2c(=O)c3ccccc3oc2c1O
Pseudomonas aeruginosa [5]
  MIC: 32 µg/mL (≈ 118 µM)

## CN(CCO)CC(O)COc1cccc2c(=O)c3ccccc3oc12 (centres undefined)
Staphylococcus aureus [6]
  MIC: < 20 µg/mL

## COc1cc(C)c2c(c1[C@@H]1O[C@@H](CO)C(O)[C@@H](O)[C@@H]1OC(=O)/C=C\c1ccc(O)cc1)CC(CC(C)=O)=CC2=O (some centres undefined)
Salmonella typhimurium [7]
  MIC: 0.18 µM (≈ 0.0995 µg/mL)
Staphylococcus aureus [8]
  MIC: 0.72 µM (≈ 0.398 µg/mL)

## COc1cc2c(c(O)c1OC)c(=O)c1ccc(O)cc1n2C
Staphylococcus aureus [9]
  diameter of the inhibition zone (DIZ): 9.58 mm

## COC1=CC(=O)c2c(O)c3c(c(O)c2C1=O)CC(C)(O)C(OC(C)=O)C3 (centres undefined)
Bacillus cereus [10]
  MIC: 0.0088 µM (≈ 0.00319 µg/mL)

## C=CCNCC(O)COc1ccc2c(=O)c3cccc(C)c3oc2c1 (centres undefined)
Staphylococcus aureus [6]
  MIC: < 20 µg/mL

## COc1c(O)c(C=O)cc2c(=O)c3ccccc3oc12
Pseudomonas aeruginosa [5]
  MIC: 32 µg/mL (≈ 118 µM)

## COC1=CC(=O)c2c(cc3c(c2O)CC(O)C(C)(O)C3)C1=O (centres undefined)
Bacillus cereus [10]
  MIC: 0.312 µM (≈ 0.0949 µg/mL)

## CN(CCC(O)COc1cccc2c(=O)c3ccc(Cl)cc3oc12)C(C)(C)C (centres undefined)
Staphylococcus aureus [6]
  MIC: < 20 µg/mL

## COc1ccccc1CNCCC(O)COc1cccc2c(=O)c3ccccc3oc12 (centres undefined)
Staphylococcus aureus [6]
  MIC: < 20 µg/mL

## CC1=CC2c3c(O)c(O)c4oc5cc(O)cc(O)c5c(=O)c4c3[C@H](c3cc(O)c(O)c4oc5cc(O)cc(O)c5c(=O)c34)C2C(C)(C)C1 (some centres undefined)
Staphylococcus aureus [11]
  MIC: 3.9 µg/mL (≈ 5.98 µM)
Staphylococcus aureus [12]
  MIC: 3.9 µg/mL (≈ 5.98 µM)
Vibrio rotiferianus
  MIC: 15.6 µg/mL (≈ 23.9 µM)
Vibrio campbellii
  MIC: 15.6 µg/mL (≈ 23.9 µM)

## Cc1cccc2c(=O)c3ccc(OCC(O)CNC(C)C)cc3oc12 (centres undefined)
Staphylococcus aureus [6]
  MIC: < 20 µg/mL

## O=C1c2cccc(O)c2C(=O)c2c(O)cc(CO)cc21 [ALOE-EMODIN]
Salmonella
  MIC: 250 µg/mL (≈ 925 µM)
Escherichia coli [13]
  MIC: 125 µg/mL (≈ 463 µM)
Porphyromonas gingivalis
  MIC: 2.5 µg/mL (≈ 9.25 µM)
Streptococcus mutans
  MIC: 6.25 µg/mL (≈ 23.1 µM)
Staphylococcus aureus [14]
  MIC: 4 µg/mL

## Cc1cc(O)c2c(c1)C(=O)c1cccc(O)c1C2=O [CHRYSOPHANOL]
Proteus vulgaris
  MIC: 128 µg/mL (≈ 503 µM)
Bacillus cereus [15]
  MIC: > 250 µg/mL
Staphylococcus aureus [16]
  MIC: > 250 µg/mL
[17]
  MIC: > 250 µg/mL
[18]
  MIC: 64 µg/mL
Escherichia coli [19]
  MIC: 125 µg/mL (≈ 492 µM)
Escherichia coli [20]
  MIC: 3.13 µg/mL
Aeromonas hydrophila [21]
  MIC: 200 µg/mL (≈ 787 µM)
Aeromonas hydrophila [22]
  MIC: 200 µg/mL (≈ 787 µM)
Rothia kristinae
  MIC: > 250 µg/mL
Klebsiella aerogenes
  MIC: > 250 µg/mL
Pseudomonas aeruginosa [23]
  MIC: 128 µg/mL (≈ 503 µM)
Staphylococcus aureus [24]
  MIC: 90 µg/mL (≈ 354 µM)
Cryptococcus neoformans
  MIC: 50 µg/mL
Candida albicans
  MIC: 50 µg/mL (≈ 197 µM)
Vibrio harveyi
  MIC: 1000 µg/mL (≈ 3930 µM)
Neisseria gonorrhoeae
  MIC: 75 µg/mL (≈ 295 µM)
Trichophyton rubrum
  MIC: 156 µg/mL (≈ 614 µM)
Epidermophyton floccosum
  MIC: 625 µg/mL (≈ 2460 µM)
Pseudomonas aeruginosa [25]
  inhibition zone (IZ): 18 mm
Escherichia coli [26]
  inhibition zone (IZ): 18 mm

## Cc1cc(O)c2c(c1)C(=O)c1cc(O)cc(O)c1C2=O [EMODIN]
Bacillus sp.
  MIC: 0.5 µg/mL (≈ 1.85 µM)
Staphylococcus aureus [27]
  MIC: 0.125 µg/mL (≈ 0.463 µM)
Staphylococcus aureus [28]
  MIC: 64 µg/mL (≈ 237 µM)
Staphylococcus aureus [29]
  MIC: 4 µg/mL (≈ 14.8 µM)
Bacillus subtilis
  MIC: 8 µg/mL (≈ 29.6 µM)
[30]
  MIC: 0.9 µg/mL (≈ 3.33 µM)
Bacillus cereus [31]
  MIC: 16 µg/mL (≈ 59.2 µM)
Streptococcus suis
  MIC: 0.125 µg/mL (≈ 0.463 µM)
Escherichia coli [32]
  MIC: > 128 µg/mL
Pseudomonas aeruginosa [33]
  MIC: > 128 µg/mL
Pseudomonas aeruginosa [34]
  MIC: > 128 µg/mL
Pseudomonas aeruginosa [35]
  MIC: 128 µg/mL (≈ 474 µM)
Salmonella typhimurium [36]
  MIC: 128 µg/mL (≈ 474 µM)
Haemophilus parasuis
  MIC: 32 µg/mL (≈ 118 µM)
Staphylococcus aureus [24]
  MIC: 20 µg/mL (≈ 74 µM)

## COc1cc(O)c2c(c1)C(=O)c1cc(C)cc(O)c1C2=O [PHYSCION]
Staphylococcus aureus [24]
  MIC: 90 µg/mL (≈ 317 µM)

## O=C1c2ccccc2C(=O)c2c(O)c(O)cc(O)c21 [PURPURIN]
Acetylcholinesterase
  IC50: 300 nM
